Source: paper PMC10791743, “Selective CK1α degraders exert antiproliferative activity against a broad range of human cancer cell lines” (Nature Communications, 2024)

Columns and labels:
Assay in all cases: cells
Design in all cases: Oncolines panel cell viability, ATPlite 1Step luminescence, duplicate 9-point dose response, IC50
PFSK-1 = conditions: Homo sapiens, PFSK-1; 72 h viability; read-out: SJ3149
Experimental: (§1) Cell viability assays were performed as previously described. In brief, cells were seeded in a 384-well plate at an optimized density. The starting cell number was determined after 24 h incubation by adding ATPlite 1Step (Perkin Elmer, Groningen, the Netherlands) to each well and recording luminescence on an Envision multimode reader (Perkin Elmer, Waltham, MA). After the addition of a duplicate 9-point dilution series of SJ3149, cells were incubated for another 72 h, followed by cell counting using ATPlite 1Step. The dilution series ranged from 3.2 to 31,600 nM or was diluted 100-fold for the most sensitive cell lines to ideally capture the complete dose–response curve. Percentage viability was determined at each compound concentration by relating the observed signal to a vehicle-treated control, that is, medium containing 0.4% (v/v) DMSO. Compound IC50 values were calculated by fitting a 4-parameter logistic curve to the percentage viability values using IDBS XLfit5 (IDBS, Guildford, UK). The IC50 was limited to the maximum tested compound concentration when the IC50 exceeded the maximum tested concentration. […] To evaluate the compound’s effect and potential therapeutic application across a diverse range of human cancers, we profiled SJ3149 in Oncolines® panel consisting of 115 human cancer cell lines, of which 86 were solid tumor and 29 hematologic cell lines, including MOLM-13. Effect on cell viability was monitored using ATPLite™ (Perkin Elmer), which measures intracellular ATP content as an indirect readout of cell number, like CellTiter Glo.

SW872 = conditions: Homo sapiens, SW872; 72 h viability; read-out: SJ3149
Experimental: as §1

BxPC-3 = conditions: Homo sapiens, BXPC-3; 72 h viability; read-out: SJ3149
Experimental: as §1

U-87 MG = conditions: Homo sapiens, U-87 MG; 72 h viability; read-out: SJ3149
Experimental: as §1

ES-2 = conditions: Homo sapiens, ES-2; 72 h viability; read-out: SJ3149
Experimental: as §1

AN3 CA = conditions: Homo sapiens, AN3-CA; 72 h viability; read-out: SJ3149
Experimental: as §1

COLO 829 = conditions: Homo sapiens, COLO-829; 72 h viability; read-out: SJ3149
Experimental: as §1

A388 = conditions: 72 h viability; read-out: SJ3149
Experimental: as §1

NCI-H460 = conditions: Homo sapiens, NCI-H460; 72 h viability; read-out: SJ3149
Experimental: as §1

T24 = conditions: Homo sapiens, T-24; 72 h viability; read-out: SJ3149
Experimental: as §1

Kasumi-1 = conditions: Homo sapiens, Kasumi 1; 72 h viability; read-out: SJ3149
Experimental: as §1

CAL 27 = conditions: Homo sapiens, CAL-27; 72 h viability; read-out: SJ3149
Experimental: as §1

PL-21 = conditions: PL-21; 72 h viability; read-out: SJ3149
Experimental: as §1

SW837 = conditions: Homo sapiens, SW837; 72 h viability; read-out: SJ3149
Experimental: as §1

DLD-1 = conditions: Homo sapiens, DLD-1; 72 h viability; read-out: SJ3149
Experimental: as §1

DB = conditions: Homo sapiens, DB; 72 h viability; read-out: SJ3149
Experimental: as §1

A-427 = conditions: Homo sapiens, A-427; 72 h viability; read-out: SJ3149
Experimental: as §1

NB4 = conditions: Homo sapiens, NB-4; 72 h viability; read-out: SJ3149
Experimental: as §1

Daoy = conditions: Homo sapiens, Daoy; 72 h viability; read-out: SJ3149
Experimental: as §1

NCI-H661 = conditions: Homo sapiens, NCI-H661; 72 h viability; read-out: SJ3149
Experimental: as §1

Measured: IC50

O=C1CCC(N2Cc3cc(Nc4noc5ccccc45)ccc3C2=O)C(=O)N1 (centres unmarked) [SJ3149]
> 31.6 µM: all assays above
